# Laboratory results: patent US20250163104A1, “MACROCYCLIC IMMUNOMODULATORS” (priority 2021, published 2025)
# Where a SMILES comes first, the peptide text is derived from it. Bridges are numbered along the chain shown (N, C = ends). [ ]: non-standard residue; d: D form. The star is where a group is joined. ξ: configuration not given here. Bip = N[C@@H](Cc1ccc(-c2ccccc2)cc1)C(=O)O; Phe(3-Me) = Cc1cccc(C[C@H](N)C(=O)O)c1; 4Pal = N[C@@H](Cc1ccncc1)C(=O)O; Aad = N[C@@H](CCCC(=O)O)C(=O)O; Cha = N[C@@H](CC1CCCCC1)C(=O)O; Carboxymethyl = O=C(O)C*; Orn = NCCC[C@H](N)C(=O)O; Dab = NCC[C@H](N)C(=O)O; Dap = NC[C@H](N)C(=O)O; ξPra = C#CCC(N)C(=O)O
# Biological target: T1, human PD-1 / PD-L1-Ig binding on Jurkat cell line over-expressing human PD-1 (Jurkat-PD-1) (Homo sapiens, UniProt Q15116)
# T1 construct: expressed in transfected cells; host or cells: Jurkat
# T1 sequence (Q15116 25-288): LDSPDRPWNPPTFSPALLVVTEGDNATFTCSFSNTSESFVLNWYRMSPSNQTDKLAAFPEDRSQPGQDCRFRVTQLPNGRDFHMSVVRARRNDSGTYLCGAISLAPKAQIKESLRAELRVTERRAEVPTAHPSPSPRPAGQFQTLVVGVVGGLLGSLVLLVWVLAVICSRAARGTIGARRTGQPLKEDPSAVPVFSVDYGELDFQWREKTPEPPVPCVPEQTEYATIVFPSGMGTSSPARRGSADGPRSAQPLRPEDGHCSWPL
# Assay: Jurkat-PD-1 Cell Binding High-Content Screening Assay (CBA)
# Assay type: cell-based
# Details: Jurkat-PD-1 cells, PE-labeled PD-L1-Ig 20 nM final; read-out: Jurkat HPD1_PDL1 IC50
# How it was run: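 PE-PD-L1-Ig 20 nM final; cells in DMEM/10% FCS; cpd pre-incubation 2 h, 37° C; ligand 1 h; PFA fix + Hoechst 33342; high-content imaging read-out.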
row,Compound,IC50 [nM]
1,CC(C)C[C@@H]1NC(=O)[C@H](Cc2c[nH]c3ccccc23)NC(=O)[C@H](CC(=O)O)NC(=O)[C@H](Cc2ccc(O)cc2)NC(=O)[C@H](Cc2ccccc2)NC(=O)CSC[C@@H](C(=O)NCC(N)=O)NC(=O)[C@H](CO)NC(=O)[C@H](C(C)C)NC(=O)[C@H](CC2CCCCC2)NC(=O)[C@H](CC(N)=O)NC(=O)[C@@H](CC(C)C)NC(=O)[C@H](CN)NC(=O)[C@H](C(C)C)NC(=O)[C@H](Cc2ccc(-c3ccccc3)cc2)NC1=O [Compound 1392] ({CH2CO}-FYDWL[Bip]V[Dap][dL]N[Cha]VSCG-NH2; thioether N-14),78.1
2,CC(C)C[C@@H]1NC(=O)[C@H](Cc2c[nH]c3ccccc23)NC(=O)[C@H](CC(=O)O)NC(=O)[C@H](Cc2ccc(O)cc2)NC(=O)[C@H](Cc2ccccc2)NC(=O)CSC[C@@H](C(=O)N[C@@H](C)C(N)=O)NC(=O)[C@H](CO)NC(=O)[C@H](C(C)C)NC(=O)[C@H](CC(C)C)NC(=O)[C@H](CCN)NC(=O)[C@@H](C)NC(=O)[C@H](CCCN)NC(=O)[C@H](C(C)C)NC(=O)[C@H](Cc2ccc(-c3ccccc3)cc2)NC1=O [Compound 1095] ({CH2CO}-FYDWL[Bip]V[Orn][dA][Dab]LVSCA-NH2; thioether N-14),146
3,Cc1cccc(C[C@@H]2NC(=O)[C@H](CC(=O)O)NC(=O)[C@H](Cc3ccc(OCC(=O)O)cc3)NC(=O)[C@H](CCCC(=O)O)NC(=O)CSC[C@@H](C(=O)N[C@@H](C)C(N)=O)NC(=O)[C@H](CO)NC(=O)[C@H](C(C)C)NC(=O)[C@H](CC3CCCCC3)NC(=O)[C@H](CCN)NC(=O)[C@@H](CC(C)C)NC(=O)[C@H](CCCN)NC(=O)[C@H](C(C)C)NC(=O)[C@H](Cc3ccc(-c4ccccc4)cc3)NC(=O)[C@H](C(C)C)NC2=O)c1 [Compound 2537] ({CH2CO}-[Aad]Y(Carboxymethyl)D[Phe(3-Me)]V[Bip]V[Orn][dL][Dab][Cha]VSCA-NH2; thioether N-14),18.3
4,C#CCC(NC(=O)[C@H](CCCNC(=N)N)NC(=O)[C@@H]1CSCC(=O)N[C@@H](Cc2ccncc2)C(=O)N[C@@H](Cc2ccc(OCC(=O)O)cc2)C(=O)N[C@@H](CC(=O)O)C(=O)N[C@@H](Cc2c[nH]c3ccccc23)C(=O)N[C@@H](C(C)C)C(=O)N[C@@H](Cc2ccc(-c3ccccc3)cc2)C(=O)N[C@@H]([C@@H](C)CC)C(=O)N[C@@H](CCCN)C(=O)N[C@H](CC(C)C)C(=O)N[C@@H](CCN)C(=O)N[C@@H](CC(C)C)C(=O)N[C@@H](C(C)C)C(=O)N[C@@H]([C@@H](C)O)C(=O)N1)C(N)=O (stereo partly drawn) [Compound 1762] ({CH2CO}-[4Pal]Y(Carboxymethyl)DWV[Bip]I[Orn][dL][Dab]LVTCR[ξPra]-NH2; thioether N-14),20.5

# Stronger by IC50, values ahead:
row,IC50 [nM],Compound
1,10.5,COc1cccc(C[C@@H]2NC(=O)[C@H](CC(=O)O)NC(=O)[C@H](Cc3ccc(OCC(=O)O)cc3)NC(=O)[C@H](Cc3ccncc3)NC(=O)CSC[C@@H](C(=O)N[C@@H](C)C(N)=O)NC(=O)[C@H]([C@@H](C)O)NC(=O)[C@H](C(C)C)NC(=O)[C@H](CC3CCCCC3)NC(=O)[C@H](CCN)NC(=O)[C@@H](CC(C)C)NC(=O)[C@H](CCCN)NC(=O)[C@H](CCC(=O)O)NC(=O)[C@H](Cc3ccc(-c4ccccc4)cc3)NC(=O)[C@H](C(C)C)NC2=O)c1 [Compound 1544]
2,11.1,CC(C)C[C@H]1NC(=O)[C@H](CCCN)NC(=O)[C@H](CCC(=O)O)NC(=O)[C@H](Cc2ccc(-c3ccccc3)cc2)NC(=O)[C@H](C(C)C)NC(=O)[C@H](Cc2ccc(Cl)c(Cl)c2)NC(=O)[C@H](CC(=O)O)NC(=O)[C@H](Cc2ccc(OCC(=O)O)cc2)NC(=O)[C@H](CN)NC(=O)CSC[C@@H](C(=O)N[C@@H](C)C(N)=O)NC(=O)[C@H]([C@@H](C)O)NC(=O)[C@H](C(C)C)NC(=O)[C@H](CC2CCCCC2)NC(=O)[C@H](CCN)NC1=O [Compound 2152]
